Laboratory results from US10548897B2, “KSR antagonists” (Icahn School of Medicine at Mount Sinai, priority 2015, dated 2020).

Tests used:
RAF = assay: Inhibitory activity against purified RAF; type: biochemical
A549 = assay: Cell viability, combination with trametinib, A549; type: cell-based; conditions: A549 (Ras-mutant)
Protocol: High BLISS scores indicate statistically significant synergy between Compound 21 and trametinib specifically within K-Ras mutant cells. Numbers listed within synergy matrices, representing % growth inhibition relative to DMSO controls, are mean of two replicates. Insets highlight dose responses of trametinib in the absence or presence of 1 μM Compound 21.
The viability ratio represented the viability observed for treated (inhibitors) relative to controls (DMSO).

[1] = system: KSR-stimulated MEK and ERK phosphorylation; assay: Cell-based reconstitution system monitoring KSR-driven MAPK signaling
Excerpt: To assess the biological function of lead compounds as Ras-MAPK pathway antagonists, a simplified cell-based reconstitution system was developed to directly monitor KSR-driven MAPK signaling. […] Based on similarity in phenotype and direct-binding activity, Compound 21 was identified as a small molecule mimic of KSR alleles that suppress oncogenic Ras mutations.

KSR2:B-RAF^F667E dimers = KSR2:B-RAF^F667E dimers (Homo sapiens, UniProt Q6VAB6); assay: Biolayer inferometry of KSR2:B-RAF dimerization (Octet Red96); type: binding; conditions: compound at 25 μM
Protocol: B-RAF and B-RAF mutants (F667E+/−R509H) were immobilized on sensor-heads and KSR2:MEK1 or MEK1 assembly was monitored. Curves indicate dose ranges of KSR2:MEK1 or MEK1 from 625 nM to 10 μM. In all plots, association occurred from 0 to 660 seconds, and dissociation was monitored thereafter up to 1500 seconds. Compound 21 and trametinib were added in the presence of KSR2:MEK1 at a concentration of 25 μM each.
To directly investigate the impact of Compound 21 on KSR2:B-RAF dimerization, bio-layer inferometry (BLI) was utilized to monitor real-time association and dissociation of KSR2:MEK1 or free MEK1 to a sensor tethered with immobilized B-RAF.
To specifically monitor KSR2:B-RAF dimerization relative to other possible interactions, a mutation in B-RAF^F667E was identified that eliminates binding to free MEK but not KSR2-MEK1 complexes, as shown in FIGS. 7C-7D. […]
Interactions between purified B-RAF and the KSR2:MEK1 complex were measured using biolayer inferometry on the Octet Red96 system (Forte Bio). […] Association and dissociation was monitored over 660 and 840 seconds, respectively. Data sets were normalized and analysed using global fit binding models (Fortebio software). […]

[2] = system: ERK phosphorylation in SK-MEL-239 cell line; assay: ERK phosphorylation dose response to trametinib, SK-MEL-239; type: cell-based; conditions: SK-MEL-239 (RAF-mutant)
MEK = assay: Inhibitory activity against purified MEK; type: biochemical
[3] = system: MAPK pathway readouts (pERK, pMEK, pRSK) in A375 and HCT-116; assay: Western blot of MAPK pathway readouts, treatment with trametinib combinations; type: cell-based

## COc1cc2ncnc(Nc3ccc(Oc4ccccc4)cc3C)c2cc1OC [Compound 21, 6,7-Dimethoxy-N-(2-methyl-4-phenoxyphenyl)quinazolin-4-amine 2,2,2-trifluoroacetate]
RAF
  inhibitory activity against purified RAF: lacked detectable inhibitory activity
A549
  shift of cell viability dose response to trametinib: shifted the cell viability dose response to trametinib
[1]; KSR expression-dependent MAPK signaling
  suppression of KSR-stimulated MEK and ERK phosphorylation: suppressed
[1]; KSR^A690F mutant
  suppression of KSR-stimulated MAPK signaling with active site mutant KSR^A690F: greatly diminished the activity
KSR2:B-RAF^F667E dimers
  association of KSR2:MEK1 with immobilized B-RAF^F667E: did not associate
[2]
  enhancement in the IC90 of trametinib on ERK phosphorylation: not
MEK
  inhibitory activity against purified MEK: lacked detectable inhibitory activity
[3]; alone, compared with Compound 21 + trametinib co-treatment
  MAPK pathway inhibition (pERK, pMEK, pRSK), single agent: did not display the same pathway inhibition
[3]; combined with trametinib, A375 and HCT-116
  MAPK pathway inhibition (pERK, pMEK, pRSK) in combination with trametinib: reduction in MAPK pathway readouts
